# Assay results: patent US8192962B2, “Processes for detecting toxic substances” (Daikin Industries, Ltd., priority 2001, dated 2012)
# Tested on: Stress protein genes
# Assay: DNA chip mRNA expression in yeast, stress protein genes (Table 6)
# Format: cell-based, Saccharomyces cerevisiae S288C
# Outline: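 Measured as treated-to-untreated fluorescence ratio on a full-genome yeast DNA chip. Cells (S288C, YPD, 25° C.) were exposed in log phase for two hours to one chemical, dosed to curb growth without killing.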
structure (smiles),measurement,setting,value
"[Cl][Pb][Cl] [(4), PbCl2]",The level of expressed mRNA in the presence of chemical substance/The level of expressed mRNA in the absence of chemical substance,yeast gene YAL005C,0.9
same,The level of expressed mRNA in the presence of chemical substance/The level of expressed mRNA in the absence of chemical substance,yeast gene YAL015C,1.9
same,The level of expressed mRNA in the presence of chemical substance/The level of expressed mRNA in the absence of chemical substance,yeast gene YBL075C,1.6
same,The level of expressed mRNA in the presence of chemical substance/The level of expressed mRNA in the absence of chemical substance,yeast gene YBL093C,1.4
same,The level of expressed mRNA in the presence of chemical substance/The level of expressed mRNA in the absence of chemical substance,yeast gene YBR044C,1.9
same,The level of expressed mRNA in the presence of chemical substance/The level of expressed mRNA in the absence of chemical substance,yeast gene YBR054W,1.7
same,The level of expressed mRNA in the presence of chemical substance/The level of expressed mRNA in the absence of chemical substance,yeast gene YBR067C,0.9
same,The level of expressed mRNA in the presence of chemical substance/The level of expressed mRNA in the absence of chemical substance,yeast gene YBR072W,10.5
same,The level of expressed mRNA in the presence of chemical substance/The level of expressed mRNA in the absence of chemical substance,yeast gene YBR126C,1.2
same,The level of expressed mRNA in the presence of chemical substance/The level of expressed mRNA in the absence of chemical substance,yeast gene YBR169C,1.9
same,The level of expressed mRNA in the presence of chemical substance/The level of expressed mRNA in the absence of chemical substance,yeast gene YCL035C,1.7
same,The level of expressed mRNA in the presence of chemical substance/The level of expressed mRNA in the absence of chemical substance,yeast gene YCR021C,8.6
same,The level of expressed mRNA in the presence of chemical substance/The level of expressed mRNA in the absence of chemical substance,yeast gene YCR083W,1.8
same,The level of expressed mRNA in the presence of chemical substance/The level of expressed mRNA in the absence of chemical substance,yeast gene YDL022W,1.5
same,The level of expressed mRNA in the presence of chemical substance/The level of expressed mRNA in the absence of chemical substance,yeast gene YDL025C,1.5
same,The level of expressed mRNA in the presence of chemical substance/The level of expressed mRNA in the absence of chemical substance,yeast gene YDR033W,1.5
same,The level of expressed mRNA in the presence of chemical substance/The level of expressed mRNA in the absence of chemical substance,yeast gene YDR077W,2.1
same,The level of expressed mRNA in the presence of chemical substance/The level of expressed mRNA in the absence of chemical substance,yeast gene YDR098C,0.8
same,The level of expressed mRNA in the presence of chemical substance/The level of expressed mRNA in the absence of chemical substance,yeast gene YDR155C,1.8
same,The level of expressed mRNA in the presence of chemical substance/The level of expressed mRNA in the absence of chemical substance,yeast gene YDR258C,1.4
same,The level of expressed mRNA in the presence of chemical substance/The level of expressed mRNA in the absence of chemical substance,yeast gene YDR293C,1.4
same,The level of expressed mRNA in the presence of chemical substance/The level of expressed mRNA in the absence of chemical substance,yeast gene YDR436W,1.4
same,The level of expressed mRNA in the presence of chemical substance/The level of expressed mRNA in the absence of chemical substance,yeast gene YDR513W,2.6
same,The level of expressed mRNA in the presence of chemical substance/The level of expressed mRNA in the absence of chemical substance,yeast gene YDR519W,1.6
same,The level of expressed mRNA in the presence of chemical substance/The level of expressed mRNA in the absence of chemical substance,yeast gene YEL030W,1.1
same,The level of expressed mRNA in the presence of chemical substance/The level of expressed mRNA in the absence of chemical substance,yeast gene YEL039C,5.1
same,The level of expressed mRNA in the presence of chemical substance/The level of expressed mRNA in the absence of chemical substance,yeast gene YER042W,1.0
same,The level of expressed mRNA in the presence of chemical substance/The level of expressed mRNA in the absence of chemical substance,yeast gene YER057C,1.8
same,The level of expressed mRNA in the presence of chemical substance/The level of expressed mRNA in the absence of chemical substance,yeast gene YER103W,2.1
same,The level of expressed mRNA in the presence of chemical substance/The level of expressed mRNA in the absence of chemical substance,yeast gene YER125W,0.9
same,The level of expressed mRNA in the presence of chemical substance/The level of expressed mRNA in the absence of chemical substance,yeast gene YFL014W,11.0
same,The level of expressed mRNA in the presence of chemical substance/The level of expressed mRNA in the absence of chemical substance,yeast gene YFL016C,0.9
same,The level of expressed mRNA in the presence of chemical substance/The level of expressed mRNA in the absence of chemical substance,yeast gene YFL020C,1.2
same,The level of expressed mRNA in the presence of chemical substance/The level of expressed mRNA in the absence of chemical substance,yeast gene YFR052W,1.5
same,The level of expressed mRNA in the presence of chemical substance/The level of expressed mRNA in the absence of chemical substance,yeast gene YGL073W,1.0
same,The level of expressed mRNA in the presence of chemical substance/The level of expressed mRNA in the absence of chemical substance,yeast gene YGL115W,2.0
same,The level of expressed mRNA in the presence of chemical substance/The level of expressed mRNA in the absence of chemical substance,yeast gene YGL181W,1.1
same,The level of expressed mRNA in the presence of chemical substance/The level of expressed mRNA in the absence of chemical substance,yeast gene YGR088W,2.4
same,The level of expressed mRNA in the presence of chemical substance/The level of expressed mRNA in the absence of chemical substance,yeast gene YHL028W,0.5
same,The level of expressed mRNA in the presence of chemical substance/The level of expressed mRNA in the absence of chemical substance,yeast gene YHL046C,1.3
same,The level of expressed mRNA in the presence of chemical substance/The level of expressed mRNA in the absence of chemical substance,yeast gene YHR030C,2.9
same,The level of expressed mRNA in the presence of chemical substance/The level of expressed mRNA in the absence of chemical substance,yeast gene YHR057C,0.9
same,The level of expressed mRNA in the presence of chemical substance/The level of expressed mRNA in the absence of chemical substance,yeast gene YHR104W,1.9
same,The level of expressed mRNA in the presence of chemical substance/The level of expressed mRNA in the absence of chemical substance,yeast gene YIL011W,0.6
same,The level of expressed mRNA in the presence of chemical substance/The level of expressed mRNA in the absence of chemical substance,yeast gene YIL033C,1.3
same,The level of expressed mRNA in the presence of chemical substance/The level of expressed mRNA in the absence of chemical substance,yeast gene YIR037W,2.3
same,The level of expressed mRNA in the presence of chemical substance/The level of expressed mRNA in the absence of chemical substance,yeast gene YIR038C,2.0
same,The level of expressed mRNA in the presence of chemical substance/The level of expressed mRNA in the absence of chemical substance,yeast gene YJL128C,0.8
same,The level of expressed mRNA in the presence of chemical substance/The level of expressed mRNA in the absence of chemical substance,yeast gene YJL158C,1.5
same,The level of expressed mRNA in the presence of chemical substance/The level of expressed mRNA in the absence of chemical substance,yeast gene YJL159W,1.1
same,The level of expressed mRNA in the presence of chemical substance/The level of expressed mRNA in the absence of chemical substance,yeast gene YJL165C,1.6
same,The level of expressed mRNA in the presence of chemical substance/The level of expressed mRNA in the absence of chemical substance,yeast gene YJR090C,0.8
same,The level of expressed mRNA in the presence of chemical substance/The level of expressed mRNA in the absence of chemical substance,yeast gene YKL161C,2.2
same,The level of expressed mRNA in the presence of chemical substance/The level of expressed mRNA in the absence of chemical substance,yeast gene YKL163W,1.9
same,The level of expressed mRNA in the presence of chemical substance/The level of expressed mRNA in the absence of chemical substance,yeast gene YKL164C,0.9
same,The level of expressed mRNA in the presence of chemical substance/The level of expressed mRNA in the absence of chemical substance,yeast gene YKL210W,0.7
same,The level of expressed mRNA in the presence of chemical substance/The level of expressed mRNA in the absence of chemical substance,yeast gene YKR053C,1.2
same,The level of expressed mRNA in the presence of chemical substance/The level of expressed mRNA in the absence of chemical substance,yeast gene YLL024C,0.8
same,The level of expressed mRNA in the presence of chemical substance/The level of expressed mRNA in the absence of chemical substance,yeast gene YLL026W,1.7
same,The level of expressed mRNA in the presence of chemical substance/The level of expressed mRNA in the absence of chemical substance,yeast gene YLL039C,1.2
same,The level of expressed mRNA in the presence of chemical substance/The level of expressed mRNA in the absence of chemical substance,yeast gene YLL060C,2.6
same,The level of expressed mRNA in the presence of chemical substance/The level of expressed mRNA in the absence of chemical substance,yeast gene YLR006C,6.2
same,The level of expressed mRNA in the presence of chemical substance/The level of expressed mRNA in the absence of chemical substance,yeast gene YLR109W,0.9
same,The level of expressed mRNA in the presence of chemical substance/The level of expressed mRNA in the absence of chemical substance,yeast gene YLR259C,1.6
same,The level of expressed mRNA in the presence of chemical substance/The level of expressed mRNA in the absence of chemical substance,yeast gene YML007W,1.3
same,The level of expressed mRNA in the presence of chemical substance/The level of expressed mRNA in the absence of chemical substance,yeast gene YML070W,1.9
same,The level of expressed mRNA in the presence of chemical substance/The level of expressed mRNA in the absence of chemical substance,yeast gene YMR021C,1.1
same,The level of expressed mRNA in the presence of chemical substance/The level of expressed mRNA in the absence of chemical substance,yeast gene YMR173W,0.9
same,The level of expressed mRNA in the presence of chemical substance/The level of expressed mRNA in the absence of chemical substance,yeast gene YMR186W,0.9
same,The level of expressed mRNA in the presence of chemical substance/The level of expressed mRNA in the absence of chemical substance,yeast gene YNL064C,1.1
same,The level of expressed mRNA in the presence of chemical substance/The level of expressed mRNA in the absence of chemical substance,yeast gene YNL160W,2.0
same,The level of expressed mRNA in the presence of chemical substance/The level of expressed mRNA in the absence of chemical substance,yeast gene YNL241C,1.0
same,The level of expressed mRNA in the presence of chemical substance/The level of expressed mRNA in the absence of chemical substance,yeast gene YNR076W,1.0
same,The level of expressed mRNA in the presence of chemical substance/The level of expressed mRNA in the absence of chemical substance,yeast gene YOL064C,0.6
same,The level of expressed mRNA in the presence of chemical substance/The level of expressed mRNA in the absence of chemical substance,yeast gene YOL161C,1.4
same,The level of expressed mRNA in the presence of chemical substance/The level of expressed mRNA in the absence of chemical substance,yeast gene YOR008C,1.1
same,The level of expressed mRNA in the presence of chemical substance/The level of expressed mRNA in the absence of chemical substance,yeast gene YOR009W,0.7
same,The level of expressed mRNA in the presence of chemical substance/The level of expressed mRNA in the absence of chemical substance,yeast gene YOR010C,0.6
same,The level of expressed mRNA in the presence of chemical substance/The level of expressed mRNA in the absence of chemical substance,yeast gene YOR027W,0.8
same,The level of expressed mRNA in the presence of chemical substance/The level of expressed mRNA in the absence of chemical substance,yeast gene YOR208W,2.9
same,The level of expressed mRNA in the presence of chemical substance/The level of expressed mRNA in the absence of chemical substance,yeast gene YPL059W,1.3
same,The level of expressed mRNA in the presence of chemical substance/The level of expressed mRNA in the absence of chemical substance,yeast gene YPL106C,1.1
same,The level of expressed mRNA in the presence of chemical substance/The level of expressed mRNA in the absence of chemical substance,yeast gene YPL140C,1.0
same,The level of expressed mRNA in the presence of chemical substance/The level of expressed mRNA in the absence of chemical substance,yeast gene YPL194W,1.1
same,The level of expressed mRNA in the presence of chemical substance/The level of expressed mRNA in the absence of chemical substance,yeast gene YPL223C,5.1
same,The level of expressed mRNA in the presence of chemical substance/The level of expressed mRNA in the absence of chemical substance,yeast gene YPL240C,0.9
same,The level of expressed mRNA in the presence of chemical substance/The level of expressed mRNA in the absence of chemical substance,yeast gene YPR005C,3.8
same,The level of expressed mRNA in the presence of chemical substance/The level of expressed mRNA in the absence of chemical substance,yeast gene YPR026W,1.3
